Assay results from article PMC7031696 (Cell chemical biology, 2019).
pIC50: −log10 of the molar value. Read-outs that look alike come from different tables or passages of the source.

Assays:
[1] = tested on: Plasmodium falciparum 3D7-A10 parasites; experiment: Stage specificity assay (8-h exposure of synchronized stages, IC50^8h); format: cell-based
[2] = tested on: asynchronous 3D7-A10 parasite cultures; experiment: Standard 72-h exposure asexual blood stage susceptibility assay (IC50^72h); format: cell-based, Plasmodium falciparum; details: Plasmodium falciparum, 3D7, 72 h, read-out: Overall (72hr assay) Mean IC50 (IC50^72h)
[3] = tested on: 3D7-MR4 trophozoite parasite-infected RBCs; experiment: Metabolomic profiling (hydrophilic metabolite changes, UHPLC-MS); format: cell-based, Plasmodium falciparum

In the case of `Cc1ccc(Oc2ncccc2C(=O)Nc2cccc3cccnc23)c(C)c1` [MMV020746], the “Ratio lowest IC50 8hr/IC50 72hr” value ([1]; 3D7-A10) was 221.5, the IC50 ([1]; Plasmodium falciparum, 3D7, read-out: Early rings IC50 (IC50^8h), 8-h exposure 0–8 hr, bound given in μM) was greater than 25 µM and the pIC50 ([1]; Plasmodium falciparum, 3D7, read-out: Early trophozoites Mean IC50 (IC50^8h), 8-h exposure 16–24 hr, 3D7-A10, survival at 60 h) was 4.90. It also gave an IC50 ([1]; Plasmodium falciparum, 3D7, read-out: Late rings IC50 (IC50^8h), 8-h exposure 8–16 hr, bound given in μM) greater than 25 µM, an IC50 ([1]; Plasmodium falciparum, 3D7, read-out: Late trophozoites IC50 (IC50^8h), 8-h exposure 24–32 hr, bound given in μM) greater than 25 µM and an IC50 ([1]; Plasmodium falciparum, 3D7, read-out: Schizonts IC50 (IC50^8h), 8-h exposure 32–40 hr, bound given in μM) greater than 25 µM. For the same compound, the “IC50^8h relative to IC50^72h value” ([1]; most susceptible stages) was greater than 28 fold, the pIC50 [2] was 7.25 and the “peptide levels (hemoglobin catabolism signature)” value ([3]; 10 × IC50^72h, 2.5 hr, trophozoites) was “decreased peptide levels”. The “Log2(fold changes) 3-phosphoglycerate” value ([3]; metabolite 3-phosphoglycerate, log2 fold change) was -0.8487, the “Log2(fold changes) 4-Pyridoxic acid” value ([3]; metabolite 4-Pyridoxic acid, log2 fold change) was -0.4495 and the “Log2(fold changes) 4-aminobutyrate” value ([3]; metabolite 4-aminobutyrate, log2 fold change) was -0.1236. For the same compound, the “Log2(fold changes) 4-phosphopantetheine” value ([3]; metabolite 4-phosphopantetheine, log2 fold change) was 0.0000, the “Log2(fold changes) 4-phosphopantothenate” value ([3]; metabolite 4-phosphopantothenate, log2 fold change) was -0.7722 and the “Log2(fold changes) 5-aminopentanoic acid” value ([3]; metabolite 5-aminopentanoic acid, log2 fold change) was 0.0000. For the same compound, the “Log2(fold changes) 5-methyl-THF” value ([3]; metabolite 5-methyl-THF, log2 fold change) was 0.0000, the “Log2(fold changes) 5-phosphoribosyl-1-pyrophosphate” value ([3]; metabolite 5-phosphoribosyl-1-pyrophosphate, log2 fold change) was 0.0000 and the “Log2(fold changes) 6-phospho-D-gluconate” value ([3]; metabolite 6-phospho-D-gluconate, log2 fold change) was -0.3888. For the same compound, the “Log2(fold change) HVDD” value ([3]; metabolite HVDD) was -4.2936, the “Log2(fold change) Hydroxyisocaproic acid” value ([3]; metabolite Hydroxyisocaproic acid) was 0.0000 and the “Log2(fold change) IDP” value ([3]; metabolite IDP) was 0.0000. The “Log2(fold change) IMP” value ([3]; metabolite IMP) was -0.0604, the “Log2(fold change) Inositol” value ([3]; metabolite Inositol) was 0.0000 and the “Log2(fold change) Isopentyl-PP” value ([3]; metabolite Isopentyl-PP) was -0.6932. For the same compound, the “Log2(fold change) L-arginino-succinate” value ([3]; metabolite L-arginino-succinate) was -0.2156, the “Log2(fold change) LD” value ([3]; metabolite LD) was 0.1860 and the “Log2(fold change) Myristoyl/tetradecanoyl-CoA” value ([3]; metabolite Myristoyl/tetradecanoyl-CoA) was 0.0000. For the same compound, the “Log2(fold change) N-Acetyl-L-alanine” value ([3]; metabolite N-Acetyl-L-alanine) was 0.0990, the “Log2(fold change) N-acetyl-L-ornithine” value ([3]; metabolite N-acetyl-L-ornithine) was -1.5863 and the “Log2(fold change) N-acetyl-glucosamine-1/6-phosphate” value ([3]; metabolite N-acetyl-glucosamine-1/6-phosphate) was 0.3354. For the same compound, the “Log2(fold change) N-acetyl-glutamate” value ([3]; metabolite N-acetyl-glutamate) was -0.0291, the “Log2(fold change) N-acetyl-glutamine” value ([3]; metabolite N-acetyl-glutamine) was 0.3326 and the “Log2(fold change) N-carbamoyl-L-aspartate” value ([3]; metabolite N-carbamoyl-L-aspartate) was -0.0111. For the same compound, the “Log2(fold change) NAD+” value ([3]; metabolite NAD+) was -0.2290, the “Log2(fold change) NADH” value ([3]; metabolite NADH) was 3.2383 and the “Log2(fold change) NADP+” value ([3]; metabolite NADP+) was -0.2621. The “Log2(fold change) NADPH” value ([3]; metabolite NADPH) was 2.9387, the “Log2(fold change) O-acetyl-L-serine” value ([3]; metabolite O-acetyl-L-serine) was -0.1299 and the “Log2(fold change) Octoluse 8/1P” value ([3]; metabolite Octoluse 8/1P) was -0.0750. The “Log2(fold change) Octoluse Bisphosphate” value ([3]; metabolite Octoluse Bisphosphate) was 0.1477, the “Log2(fold change) PD” value ([3]; metabolite PD) was -2.6591 and the “Log2(fold change) PE” value ([3]; metabolite PE) was -2.3902. For the same compound, the “Log2(fold change) PEE” value ([3]; metabolite PEE) was -2.3026, the “Log2(fold change) PEEK” value ([3]; metabolite PEEK) was -2.5604 and the “Log2(fold change) PVNF” value ([3]; metabolite PVNF) was -4.8059. For the same compound, the “Log2(fold change) Pyroglutamic acid” value ([3]; metabolite Pyroglutamic acid) was 0.1917, the “Log2(fold change) Pyrophosphate” value ([3]; metabolite Pyrophosphate) was 0.0000 and the “Log2(fold change) Ribose-5-phosphate” value ([3]; metabolite Ribose-5-phosphate) was -0.7820. The “Log2(fold change) S-adenosyl-L-homocysteine” value ([3]; metabolite S-adenosyl-L-homocysteine) was -0.0800, the “Log2(fold change) S-adenosyl-L-methioninamine” value ([3]; metabolite S-adenosyl-L-methioninamine) was -2.2715 and the “Log2(fold change) S-adenosyl-L-methionine” value ([3]; metabolite S-adenosyl-L-methionine) was 0.0000. The “Log2(fold change) S-methyl-5'-thioadenosine” value ([3]; metabolite S-methyl-5'-thioadenosine) was 0.5248, the “Log2(fold change) SD” value ([3]; metabolite SD) was -1.2335 and the “Log2(fold change) SDL” value ([3]; metabolite SDL) was 0.0000. The “Log2(fold change) SID” value ([3]; metabolite SID) was -1.9821, the “Log2(fold change) Sedoheptulose bisphosphate” value ([3]; metabolite Sedoheptulose bisphosphate) was -0.9337 and the “Log2(fold change) Thiamine pyrophosphate” value ([3]; metabolite Thiamine pyrophosphate) was -0.1414. The “Log2(fold changes) UDP-D-glucose” value ([3]; metabolite UDP-D-glucose, log2 fold change) was 0.0347, the “Log2(fold changes) UDP-D-glucuronate” value ([3]; metabolite UDP-D-glucuronate, log2 fold change) was -0.1265 and the “Log2(fold changes) UDP-N-acetyl-glucosamine” value ([3]; metabolite UDP-N-acetyl-glucosamine, log2 fold change) was -0.1353. For the same compound, the “Log2(fold changes) UDP” value ([3]; metabolite UDP, log2 fold change) was -0.5234, the “Log2(fold changes) UMP” value ([3]; metabolite UMP, log2 fold change) was 0.1786 and the “Log2(fold changes) UTP” value ([3]; metabolite UTP, log2 fold change) was 0.0000. The “Log2(fold change) hydroxyphenylpyruvate” value ([3]; metabolite hydroxyphenylpyruvate) was 0.0000, the “Log2(fold change) hydroxyproline/Aminolevulinate” value ([3]; metabolite hydroxyproline/Aminolevulinate) was -0.2593 and the “Log2(fold change) hypoxanthine” value ([3]; metabolite hypoxanthine) was 0.0518. The “Log2(fold change) indole” value ([3]; metabolite indole) was 0.0000, the “Log2(fold change) inosine” value ([3]; metabolite inosine) was -0.1327 and the “Log2(fold change) isoleucine” value ([3]; metabolite isoleucine) was 0.0000. For the same compound, the “Log2(fold change) lactate” value ([3]; metabolite lactate) was -0.6990, the “Log2(fold change) leucine” value ([3]; metabolite leucine) was 0.0000 and the “Log2(fold change) lysine” value ([3]; metabolite lysine) was -2.2531. For the same compound, the “Log2(fold change) malate” value ([3]; metabolite malate) was -0.6987, the “Log2(fold change) maleic acid” value ([3]; metabolite maleic acid) was -0.7709 and the “Log2(fold change) methionine” value ([3]; metabolite methionine) was -0.0286. The “Log2(fold change) myo-inositol” value ([3]; metabolite myo-inositol) was -0.7655, the “Log2(fold change) nicotinamide mononucleotide” value ([3]; metabolite nicotinamide mononucleotide) was -0.5765 and the “Log2(fold change) nicotinate” value ([3]; metabolite nicotinate) was -0.1328. The “Log2(fold change) ornithine” value ([3]; metabolite ornithine) was -0.3857, the “Log2(fold change) orotate” value ([3]; metabolite orotate) was -0.1387 and the “Log2(fold change) orotidine-5'-phosphate” value ([3]; metabolite orotidine-5'-phosphate) was 0.0782. For the same compound, the “Log2(fold change) oxaloacetate” value ([3]; metabolite oxaloacetate) was -0.6442, the “Log2(fold change) p-aminobenzoate” value ([3]; metabolite p-aminobenzoate) was 0.0000 and the “Log2(fold change) p-hydroxybenzoate” value ([3]; metabolite p-hydroxybenzoate) was 0.0000. For the same compound, the “Log2(fold change) pantothenate” value ([3]; metabolite pantothenate) was -0.1112, the “Log2(fold change) phenylalanine” value ([3]; metabolite phenylalanine) was -0.4829 and the “Log2(fold change) phenylpyruvate” value ([3]; metabolite phenylpyruvate) was 0.0000. The “Log2(fold change) phosphoenolpyruvate” value ([3]; metabolite phosphoenolpyruvate) was -0.5858, the “Log2(fold change) prephenate” value ([3]; metabolite prephenate) was -0.3824 and the “Log2(fold change) proline” value ([3]; metabolite proline) was -0.5702. For the same compound, the “Log2(fold change) pyridoxine” value ([3]; metabolite pyridoxine) was -0.1642, the “Log2(fold change) pyruvate” value ([3]; metabolite pyruvate) was -1.5001 and the “Log2(fold change) riboflavin” value ([3]; metabolite riboflavin) was 0.4413. For the same compound, the “Log2(fold change) ribose” value ([3]; metabolite ribose) was -0.0174, the “Log2(fold change) ribose-phosphate” value ([3]; metabolite ribose-phosphate) was -1.1321 and the “Log2(fold change) ribulose-5-phosphate” value ([3]; metabolite ribulose-5-phosphate) was -0.7375. For the same compound, the “Log2(fold change) serine” value ([3]; metabolite serine) was -0.1379, the “Log2(fold change) sn-glycerol-3-phosphate” value ([3]; metabolite sn-glycerol-3-phosphate) was 0.0529 and the “Log2(fold change) succinate/Methylmalonic acid” value ([3]; metabolite succinate/Methylmalonic acid) was -0.5504. For the same compound, the “Log2(fold change) succinyl-CoA/methylmalonyl-CoA” value ([3]; metabolite succinyl-CoA/methylmalonyl-CoA) was 0.0000, the “Log2(fold change) taurine” value ([3]; metabolite taurine) was 0.3831 and the “Log2(fold change) thiamine” value ([3]; metabolite thiamine) was -0.5873. The “Log2(fold change) threonine/homoserine” value ([3]; metabolite threonine/homoserine) was -0.5084, the “Log2(fold change) thymidine” value ([3]; metabolite thymidine) was 0.0000 and the “Log2(fold changes) thymine” value ([3]; metabolite thymine, log2 fold change) was 0.0000. The “Log2(fold changes) trehalose-6-Phosphate” value ([3]; metabolite trehalose-6-Phosphate, log2 fold change) was 0.0000, the “Log2(fold changes) tryptophan” value ([3]; metabolite tryptophan, log2 fold change) was -0.7516 and the “Log2(fold changes) tyrosine” value ([3]; metabolite tyrosine, log2 fold change) was -0.2515. For the same compound, the “Log2(fold changes) uridine” value ([3]; metabolite uridine, log2 fold change) was 0.0000.
